Data from PMC8540140, “The Real Cytotoxic Effect of Artemisinins on Colon Cancer Cells in a Physiological Cell Culture Setting. How Composition of the Culture Medium Biases Experimental Findings” (Pharmaceuticals, 2021).
Read-outs that look alike come from different tables or passages of the source.

Legend:
HaCaT cells = test: FITC Annexin V/PI flow cytometry apoptosis assay, HaCaT; assay type: cell-based, human; details: with LA 40 and TRFi addition
Protocol: (§1) The cells were cultured and harvested under the conditions mentioned in Cell Culture and Treatment and seeded in 6-well plates (2 × 10^5 cells per well). […] The apoptotic effect of compounds was measured using the Annexin V:FITC assay kit (Sigma Aldrich) in accordance with the protocols provided. After 72 h treatment both floating and adherent cells were harvested. The floating cells were collected by centrifugation at 700× g for 5 min at 4 °C. Adherent cells were first trypsinized and then collected by centrifugation at 700× g for 5 min at 4 °C. Both fractions were resuspended in Annexin V binding buffer, pooled and incubated with FITC Annexin V and PI for 15 min at room temperature in the dark and analyzed by flow cytometry (Becton Dickinson). A total of 10,000 events were collected. Annexin V:FITC positive and PI negative cells were recognized as early apoptosis and Annexin V:FITC and PI positive cells as late apoptosis or necrosis.

[1] = as above; assay type: cell-based, human; details: human, HaCaT cells; read-out: Q1 viable cells HaCaT
Protocol: as §1

SW480 cells [2] = test: Trypan blue exclusion viability assay, SW480; assay type: cell-based, human; details: 8 µM with LA (40 µM), 72 h, TB assay
Protocol: (§2) Next, the cells were harvested by treatment with 0.25% trypsin-0.02% EDTA (Gibco Life Technologies, Carslabad, CA USA) and seeded in 96-well plates (1 × 10^4 cells per well) for MTT assay or in 6-well plates (4 × 10^4 cells per well) for Trypan blue exclusion method. […] The cells treated only with 20 µM LA were used as a control. All experimental settings were repeated with holo-transferrin (TRFi) at pharmacological concentration (50 µM). All cells were cultured for a period of 72 h.
(§3) After a 72 h incubation with serial concentration of experimental compounds the cells were washed in PBS and harvested with trypsin. The viability was estimated by trypan blue exclusion assay using an automated cell counter (Countess Invitrogen). Experiments were performed in triplicate.

HCT-116 cells = test system: HCT-116 cells; parameters: method as in ref 37 (Lu et al. 2014); details: 40 μM, 72 h; ref 37 (Lu et al. 2014); cited from earlier work
SW480 cells [3] = test: FITC Annexin V/PI flow cytometry apoptosis assay, SW480; assay type: cell-based; details: Homo sapiens, SW480, 72 h; read-out: Q1 viable cells SW480
Protocol: as §1

[4] = test system: SW480 human primary colon cancer cell line; test: MTT cytotoxicity assay, SW480; assay type: cell-based; details: 72 h, LA 20 or 40 µM, TRFi 50 µM where named in the label
Protocol: (§4) The human cell lines SW480 (primary colon cancer), SW620 (lymph node metastatic from the same patient as SW480), and HaCaT (immortalized keratinocyte) were obtained from the American Type Culture Collection (ATCC, Rockville, USA). SW480 and SW620 cells were grown in MEM (minimal essential medium, ThermoSci, USA), and HaCaT in DMEM high glucose (Dulbecco’s Modified Eagle’s Medium, Biowest SAS, France) supplemented with 10% FBS (fetal bovine serum), HEPES (20 mM), and antibiotics (100 U/mL of penicillin and 100 μg/mL of streptomycin). The cells were maintained in a humidified incubator at 37 °C/5% CO2 until 80–90% confluence was reached.
as §2
(§5) The cytotoxic effects of tested compounds were assessed by MTT (3-(4,5-dimethylthiazol-2-yl)-2,5-diphenyltetrazolium bromide) assay. This assay is based on the metabolic reduction of soluble MTT into an insoluble colored formazan product by mitochondrial dehydrogenase activity of viable cells. After 72 h incubation in the presence of experimental compounds the cells were incubated at 37 °C with MTT solution (0.5 mg/mL) for 4h. Obtained purple formazan product was dissolved in DMSO with isopropanol (1:1) and the optical density was measured at 570 nm. Each experiment was performed in triplicate. The cytotoxicity of compounds was presented as a percent of MTT reduced in treated cells vs. control cells. The relative MTT level (%) was calculated according formula [A]/[B] × 100. [A] express the absorbance of the test sample whereas [B] the absorbance of the control sample (untreated cells. IC50 values were calculated using CompuSyn version 1.0.

SW620 cells [5] = test: Trypan blue exclusion viability assay, SW620; assay type: cell-based, human; details: 8 µM with LA (40 µM), 72 h, TB assay
Protocol: as §2, §3

[6] = test system: HaCaT human immortal keratinocyte cell line; test: MTT cytotoxicity assay, HaCaT; assay type: cell-based; details: for IC50: Homo sapiens, HaCaT, MTT, 72 h; for cytotoxic effect on HaCaT cells: combination with LA40 and TRFi
Protocol: as §4, §2, §5

SW620 cells [7] = test: FITC Annexin V/PI flow cytometry apoptosis assay, SW620; assay type: cell-based, human; details: for cells in late apoptosis SW620: with LA 40 and TRFi addition
Protocol: as §1

[8] = test system: SW620 human metastatic colon cancer cell line; test: MTT cytotoxicity assay, SW620; assay type: cell-based; details: SW-620, 72 h, LA 20 or 40 µM, TRFi 50 µM where named in the label
Protocol: The cytotoxic effects of tested compounds were assessed by MTT (3-(4,5-dimethylthiazol-2-yl)-2,5-diphenyltetrazolium bromide) assay. […] Obtained purple formazan product was dissolved in DMSO with isopropanol (1:1) and the optical density was measured at 570 nm. […] The relative MTT level (%) was calculated according formula [A]/[B] × 100. [A] express the absorbance of the test sample whereas [B] the absorbance of the control sample (untreated cells. IC50 values were calculated using CompuSyn version 1.0.

SW948 cells = test system: SW948 cells; parameters: method as in ref 36 (Lu et al. 2018); details: 48 h, ref 36 (Lu et al. 2018), cited from earlier work
[9] = test system: IL-6 secreted by SW480 cells; test: Interleukin-6 ELISA in culture medium, SW480; assay type: cell-based, human; details: added to ART-LA or DHA-LA (20 and 40 µM), 72 h; all studied settings
Protocol: (§6) The level of interleukin-6 (IL-6) secreted by SW480 and SW620 cells was measured by commercial human IL-6 ELISA kits (Diaclon SAS, Besancon Cedex, France). […] The untreated cells were used as the control. The IL-6 level in a cell culture supernatant was determined by an enzyme-linked immunosorbent assay, according to the manufacturer’s protocol. The experiment was repeated three times.

[10] = test system: IL-6 secreted by SW620 cells; test: Interleukin-6 ELISA in culture medium, SW620; assay type: cell-based, human; details: added to ART-LA or DHA-LA (20 and 40 µM), 72 h; all studied settings except ART-LA20
Protocol: as §6

[11] = with TRFi 50 µM, read-out: IC50 HaCaT at the presence of TRFi
[12] = LA 20 or 40 µM, TRFi 50 µM where named in the label, read-out: IC50 HaCaT

| Compound | late apoptosis HaCaT (HaCaT cells) [%] | viability at 72 h, 2 µM [1] [%] | viability SW480 (SW480 cells [2]) [%] | viability HCT-116 (HCT-116 cells) [%] | viability at 2 µM (SW480 cells [3]) [%] | IC50 [4] [µM] | viability SW620 (SW620 cells [5]) [%] | IC50 [6, 11] [µM] | IC50 [6, 12] [µM] | cytotoxic effect on HaCaT cells [6] | viability at 2 µM (SW620 cells [7]; Homo sapiens, SW-620, 72 h, read-out: Q1 viable cells SW620) [%] | cells in late apoptosis SW620 (SW620 cells [7]) [%] | IC50 [8] [µM] | viability SW948 (SW948 cells; 30 µM) [%] | viability SW948 (SW948 cells; 50 µM) [%] | effect of TRFi addition on IL-6 concentration SW480 [9] | effect of TRFi addition on IL-6 concentration SW620 [10] |
| --- | --- | --- | --- | --- | --- | --- | --- | --- | --- | --- | --- | --- | --- | --- | --- | --- | --- |
| C[C@H]1[C@@H](O)O[C@@H]2O[C@@]3(C)CC[C@H]4[C@H](C)CC[C@@H]1[C@@]24OO3 [DHA, dihydroartemisinin] | 42.80 | 73.7 | 35 ± 1.8 | 40 | 60.7 | 11.4 ± 1.67 | 42 ± 2.1 | 129 | 116 ± 5.5 | no cytotoxic effect | 72.4 | 90 | 11.9 ± 2.3 | 45 | 24 |  |  |
| C[C@@H]1CC[C@H]2[C@@H](C)C(=O)O[C@@H]3O[C@@]4(C)CC[C@@H]1[C@]32OO4 [ART, Artemisinin] | 25.68 | 80.8 | 39 ± 2.8 |  |  | 39 ± 2.75 | 48 ± 2.8 | 187 | 203 ± 16.2 | no cytotoxic effect |  | 90 | 42.8 ± 4.6 |  |  |  |  |
| TRFi: holotransferrin, iron-binding protein added to culture medium at 50 µM |  |  |  |  |  |  |  |  |  |  |  |  |  |  |  | increased IL-6 concentration | increased IL-6 concentration |
| COc1cccc2c1C(=O)c1c(O)c3c(c(O)c1C2=O)C[C@@](O)(C(=O)CO)C[C@@H]3O[C@H]1C[C@H](N)[C@H](O)[C@H](C)O1 [DOX, doxorubicin] |  |  |  |  |  | 0.75 ± 0.1 |  |  | 0.29 ± 0.1 |  |  |  |  |  |  |  |  |
